According to US20170224758A1, “COMPOSITIONS AND METHODS OF TREATING MUSCULAR DYSTROPHY” (THE BROAD INSTITUTE, INC., priority 2014, published 2017):

Biological target: T1, Myogenin (Mus musculus, UniProt P12979)
T1 construct: electrophoretic mobility shift assays (EMSA) were carried out using muscle cell nuclear extracts; host or cells: C2C12 nuclear extract
T1 sequence (P12979 1-224): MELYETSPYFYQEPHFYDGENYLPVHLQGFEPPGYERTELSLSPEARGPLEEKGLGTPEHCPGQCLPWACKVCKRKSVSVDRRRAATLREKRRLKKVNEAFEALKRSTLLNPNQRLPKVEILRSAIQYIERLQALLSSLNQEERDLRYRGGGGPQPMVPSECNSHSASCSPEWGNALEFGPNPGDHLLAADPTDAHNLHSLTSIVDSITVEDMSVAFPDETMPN
Test: Electrophoretic mobility shift assay (EMSA) with muscle cell nuclear extracts
Assay type: binding
Conditions: biotin labeled probe, C2C12 nuclear extract

Row | Sequence | binding of Myogenin protein (EMSA)
1 | CTCCTTTATTTCAGCTGAACTAAAGAAGTCTC (DNA, backbone and methylation of C not given here; duplex with complementary strand, biotin-labeled probe or unlabeled competitor) [T probe, biotin labeled duplex EMSA probe with the escaper variant of the Jagged1 promoter] | robustly bound
2 | CTCCTTTATTTCAGCGGAACTAAAGAAGTCTC (DNA, backbone and methylation of C not given here; duplex with complementary strand, biotin-labeled probe or unlabeled competitor) [G probe] | did not bind at all
